Numbered stars: 1 amine (or outer) side, 2 acyl side, 3 side chain; on linkers, the order of the positions; unused ones are H or OH. Square brackets hold non-standard residues; d marks the D form. Peptide text beside a SMILES is read from it. Phe(ψ(S)CH(OH)CH2N)Pro = O=C([C@@H]1CCCN1C[C@H](O)[C@H](Cc1ccccc1)N[*:1])[*:2]; Nle = CCCC[C@H](N)C(=O)O; Orn = NCCC[C@H](N)C(=O)O
Columns and labels:
[1] = target: Human immunodeficiency virus type 1 protease (Human immunodeficiency virus 1, UniProt Q72874); experiment: Affinity for HIV Protease
Prothrombin = Prothrombin (Homo sapiens, UniProt P00734); experiment: Binding affinity against thrombin
Thermolysin = target: T1, Thermolysin (Bacillus thermoproteolyticus, UniProt P00800); experiment: Binding affinity against Thermolysin
T1 sequence (P00800 whole entry): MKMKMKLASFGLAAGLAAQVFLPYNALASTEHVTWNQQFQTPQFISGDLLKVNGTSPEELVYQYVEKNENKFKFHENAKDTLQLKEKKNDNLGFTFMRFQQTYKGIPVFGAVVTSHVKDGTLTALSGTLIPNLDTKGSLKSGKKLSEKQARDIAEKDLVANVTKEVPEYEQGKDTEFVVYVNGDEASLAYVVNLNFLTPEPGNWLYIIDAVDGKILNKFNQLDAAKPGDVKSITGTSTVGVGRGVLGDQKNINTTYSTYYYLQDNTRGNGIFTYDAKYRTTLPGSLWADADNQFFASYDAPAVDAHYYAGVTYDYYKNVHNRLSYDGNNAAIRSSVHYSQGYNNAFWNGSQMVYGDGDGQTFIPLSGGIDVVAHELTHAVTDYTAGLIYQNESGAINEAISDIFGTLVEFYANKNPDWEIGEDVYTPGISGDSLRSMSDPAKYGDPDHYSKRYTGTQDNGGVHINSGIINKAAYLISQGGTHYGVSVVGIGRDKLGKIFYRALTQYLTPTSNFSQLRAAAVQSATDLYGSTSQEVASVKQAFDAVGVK

Serine protease 1 = Serine protease 1 (Homo sapiens, UniProt P07477); experiment: Binding affinity against trypsin
Sequence of Serine protease 1 (P07477 whole entry): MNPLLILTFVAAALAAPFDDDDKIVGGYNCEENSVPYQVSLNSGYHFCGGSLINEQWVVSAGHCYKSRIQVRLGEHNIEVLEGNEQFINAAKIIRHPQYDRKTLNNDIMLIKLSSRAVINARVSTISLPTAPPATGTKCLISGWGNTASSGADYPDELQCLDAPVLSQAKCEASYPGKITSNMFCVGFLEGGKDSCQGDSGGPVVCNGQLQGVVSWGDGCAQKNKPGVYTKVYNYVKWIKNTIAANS

[2] = target: T2, Mast cell carboxypeptidase A (Homo sapiens, UniProt P15088); experiment: Binding affinity against Carboxypeptidase A
T2 sequence (P15088 whole entry): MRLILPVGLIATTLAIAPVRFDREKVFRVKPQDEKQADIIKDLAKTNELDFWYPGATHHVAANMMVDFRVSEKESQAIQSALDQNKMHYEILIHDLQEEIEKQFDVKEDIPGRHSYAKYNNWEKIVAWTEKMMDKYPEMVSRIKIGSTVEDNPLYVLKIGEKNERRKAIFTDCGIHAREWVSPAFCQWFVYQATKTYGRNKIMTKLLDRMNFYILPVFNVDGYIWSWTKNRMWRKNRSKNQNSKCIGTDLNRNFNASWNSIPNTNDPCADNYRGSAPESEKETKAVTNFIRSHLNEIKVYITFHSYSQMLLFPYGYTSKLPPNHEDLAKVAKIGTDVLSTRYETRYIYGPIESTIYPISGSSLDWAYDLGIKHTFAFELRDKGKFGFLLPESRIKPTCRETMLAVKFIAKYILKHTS

[3] = target: Purine nucleoside phosphorylase (Homo sapiens) (UniProt P00491); experiment: Binding affinity against Purine Nucleoside Phosphorylase
Sequence of Purine nucleoside phosphorylase (Homo sapiens) (P00491 whole entry, looked up): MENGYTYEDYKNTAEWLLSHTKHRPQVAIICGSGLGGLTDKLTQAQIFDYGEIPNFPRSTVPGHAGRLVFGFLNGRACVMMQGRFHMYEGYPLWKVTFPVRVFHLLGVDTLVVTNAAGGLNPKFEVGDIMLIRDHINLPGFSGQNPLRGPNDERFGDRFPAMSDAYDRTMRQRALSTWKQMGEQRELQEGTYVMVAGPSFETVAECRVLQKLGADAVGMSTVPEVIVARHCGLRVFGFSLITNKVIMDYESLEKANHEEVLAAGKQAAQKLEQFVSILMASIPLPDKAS

[4] = target: T3, Fatty acid-binding protein, intestinal (Homo sapiens, UniProt P12104); experiment: Binding affinity against Fatty acid-binding protein
T3 sequence (P12104 whole entry): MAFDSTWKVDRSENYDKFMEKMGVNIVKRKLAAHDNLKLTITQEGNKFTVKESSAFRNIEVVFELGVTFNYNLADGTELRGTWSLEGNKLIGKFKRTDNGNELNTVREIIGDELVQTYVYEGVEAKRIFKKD

| Kd [1] [nM] | SMILES | other results |
| --- | --- | --- |
| 0.0347 | CC(C)[C@H](NC(=O)N(C)Cc1ccccn1)C(=O)N[C@@H](Cc1ccccc1)C[C@@H](O)[C@H](Cc1ccccc1)NC(=O)[C@@H](NC(=O)N(C)Cc1ccccn1)C(C)C [(2S)-N-[(2S,3R,5S)-3-hydroxy-5-[(2S)-3-methyl-2-{[methyl(pyridin-2-ylmethyl)carbamoyl]amino}butanamido]-1,6-diphenylhexan-2-yl]-3-methyl-2-{[methyl(pyridin-2-ylmethyl)carbamoyl]amino}butanamide] |  |
| 776 | CCCC[C@H](NC(=O)[C@H](CCCC)NC(=O)[C@@H](NC(=O)[C@@H](NC(C)=O)[C@@H](C)O)[C@@H](C)CC)C(=O)N[C@@H](CCCN)C(=O)N[C@@H](CCCN=C(N)N)C(N)=O (Ac-TI[Nle][Nle][Orn]R-NH2) |  |
| 0.204 | CC1(C)SC(C(NC(=O)Cc2ccccc2)C(=O)NCc2ccccc2)NC1C(=O)NC(Cc1ccccc1)C(O)CC(=O)NCC1=NC2C=CC=CC2=N1 (stereo unspecified) [GR-137615] |  |
|  | N=C(N)NCCC[C@H](NC(=O)[C@@H]1CCCN1C(=O)[C@@H](N)Cc1ccccc1)C(=O)O [5-amino(imino)methylamino-2-[1-[2-amino-3-phenyl-(2S)-propanoyl]-(5S)-dihydro-1H-5-pyrrolylcarboxamido]-(2S)-pentanoic acid] | Kd (Prothrombin): 575 nM |
|  | CC(C)C[C@H](NP(=O)(O)O[C@@H]1O[C@@H](C)[C@H](O)[C@@H](O)[C@H]1O)C(=O)N[C@@H](Cc1c[nH]c2ccccc12)C(=O)O [(S)-2-{(R)-2-[Hydroxy-((2R,3R,4R,5R,6S)-3,4,5-trihydroxy-6-methyl-tetrahydro-pyran-2-yloxy)-phosphorylamino]-4-methyl-pentanoylamino}-3-(1H-indol-3-yl)-propionic acid] | Kd (Thermolysin): 28 nM |
|  | NCCCCc1ccccc1 [4-Phenyl-butylamine] | Kd (Serine protease 1): 20 mM |
|  | NCCCC[C@H](NC(=O)CN)C(=O)O [(S)-6-Amino-2-(2-amino-acetylamino)-hexanoic acid] (H-Gly-Lys-OH) | Kd [2]: 129 µM |
|  | CC(C)C[C@H](NC(CCc1ccccc1)C(=O)O)C(=O)N[C@@H](Cc1c[nH]c2ccccc12)C(=O)O (stereo partly specified) | Kd (Thermolysin): 74 nM |
| 3.9 | C=CO [E1203] |  |
| 0.589 | CC(C)CN(C[C@@H](O)[C@H](Cc1ccccc1)NC(=O)O[C@H]1CCOC1)S(=O)(=O)c1ccc(N)cc1 [VX-478] |  |
| 0.708 | O=C(N[C@H]1c2ccccc2C[C@H]1O)[C@H](Cc1ccccc1)CC(O)C[C@@H](Cc1ccccc1)C(=O)N[C@H]1c2ccccc2C[C@H]1O [L-700417] |  |
|  | O=P(O)(O)OP(=O)(O)OP(=O)(O)OP(=O)(O)OP(=O)(O)OC[C@H]1O[C@@H](n2cnc3cncnc32)[C@H](O)[C@@H]1O | Kd [3]: 1100 nM |
|  | CCCCCCCCCCCCCCCC(=O)O | Kd [4]: 3.72 µM |
| 0.234 | CC[C@H](C)[C@H](NC(=O)[C@@H]1CCCN1C[C@H](O)[C@H](Cc1ccccc1)NC(=O)[C@H](CC(N)=O)NC(=O)[C@H](CC(C)C)NC(=O)[C@H](CO)NC(C)=O)C(=O)N[C@H](C(=O)OC)C(C)C (Ac-SLN[Phe(ψ(S)CH(OH)CH2N)Pro]IV-OMe) |  |
|  | O=P(O)(O)OP(=O)(O)OC[C@H]1O[C@@H](n2cnc3cncnc32)[C@H](O)[C@@H]1O | Kd [3]: 603 nM |
| 0.302 | O=C1N(Cc2ccc3ccccc3c2)[C@H](Cc2ccccc2)[C@H](O)[C@@H](O)[C@@H](Cc2ccccc2)N1Cc1ccc2ccccc2c1 |  |
|  | CC(C)C[C@H](N)C(=O)NO [(S)-2-Amino-4-methyl-pentanoic acid hydroxyamide] | Kd (Thermolysin): 191000 nM |
|  | CC(C)[C@H](N)C(=O)N[C@@H](Cc1c[nH]c2ccccc12)C(=O)O [Val-Trp] (H-Val-Trp-OH) | Kd (Thermolysin): 1230 nM |
| 7.9 | CC1(C)S[C@H]([C@H](NC(=O)Cc2ccccc2)C(=O)NCc2ccccc2)N[C@H]1C(=O)N[C@@H](CO)Cc1ccccc1 [GR-126045] |  |
|  | O=P(O)(O)OP(=O)(O)OP(=O)(O)OP(=O)(O)OC[C@H]1O[C@@H](n2cnc3cncnc32)[C@H](O)[C@@H]1O | Kd [3]: 1410 nM |
| 0.977 | CC(C)[C@H](NC(=O)N(C)Cc1ccccn1)C(=O)N[C@@H](Cc1ccccc1)[C@@H](O)[C@H](O)[C@H](Cc1ccccc1)NC(=O)[C@@H](NC(=O)N(C)Cc1ccccn1)C(C)C [(2S)-N-[(2S,3R,4R,5S)-3,4-dihydroxy-5-[(2S)-3-methyl-2-{[methyl(pyridin-2-ylmethyl)carbamoyl]amino}butanamido]-1,6-diphenylhexan-2-yl]-3-methyl-2-{[methyl(pyridin-2-ylmethyl)carbamoyl]amino}butanamide] |  |
| 427 | COC(=O)[C@@H](NC(=O)[C@@H](NC(=O)[C@H](C)N1CCC([C@H](C)NC(=O)[C@H](C)N)=C[C@@H](Cc2ccccc2)C1)C(C)C)C(C)C [SB-203238] |  |
| 0.0832 | CC(C)[C@H](NC(=O)N(C)Cc1ccccn1)C(=O)N[C@@H](Cc1ccccc1)[C@H](O)[C@H](O)[C@H](Cc1ccccc1)NC(=O)[C@@H](NC(=O)N(C)Cc1ccccn1)C(C)C [(2S)-N-[(2S,3R,4S,5S)-3,4-dihydroxy-5-[(2S)-3-methyl-2-{[methyl(pyridin-2-ylmethyl)carbamoyl]amino}butanamido]-1,6-diphenylhexan-2-yl]-3-methyl-2-{[methyl(pyridin-2-ylmethyl)carbamoyl]amino}butanamide] |  |
|  | CC(C)C[C@H](NP(=O)(O)O)C(N)=O [(P-Leu-NH2) (1-Carbamoyl-3-methyl-butyl)-phosphoramidic acid] | Kd (Thermolysin): 1290 nM |
| 0.0759 | CC(C)[C@H](NC(=O)N(C)Cc1ccccn1)C(=O)N[C@@H](Cc1ccccc1)[C@H](O)[C@@H](O)[C@H](Cc1ccccc1)NC(=O)[C@@H](NC(=O)N(C)Cc1ccccn1)C(C)C [JMC51852 Inhibitor PP] |  |
|  | O=[N+]([O-])Nc1ccccc1 [Nitroanilide] | Kd (Thermolysin): 427 nM |
